Earlier results, collected in US10934504B2, “Laundry treatment compositions comprising perfume and silica microparticles” (Conopco, Inc., priority 2016, dated 2021).

Settings: values taken from the Good Scents website

| SMILES | logKow |
| --- | --- |
| CC(=O)OCc1ccccc1 [Benzyl acetate] | 2.0 |
| CCCCCCCCCC(C)C=O (stereo not drawn) [C12 Aldehyde MNA] | 4.9 |
| C=CC(C)CCCC(C)(C)O (stereo not drawn) [Dihydromyrcenol] | 2.9 |
| CC(=O)OC(C)(C)Cc1ccccc1 [Dimethyl benzyl carbinyl acetate] | 2.7 |
| CC(C=O)Cc1ccc(C(C)(C)C)cc1 (stereo not drawn) [Lilial] | 3.6 |
| C=C(C)[C@H]1CC=C(C)CC1 [Limonene] | 3.4 |
| CCCC(C)C(=O)OCC (stereo not drawn) [Manzanate] | 2.4 |
| c1ccc(CCOC2CCCCC2)cc1 [Phenafleur] | 3.8 |
| CC(=O)c1cc2c(cc1C)C(C)(C)C(C)CC2(C)C (stereo not drawn) [Tonalid] | 4.8 |
| CC(=O)OC1CC2CC1C1CC=CC21 (stereo not drawn) [Verdyl acetate] | 2.2 |
| CCCCCCOC(=O)c1ccccc1O [n-Hexyl salicylate] | 5.7 |
| CC(=O)/C=C/C1=C(C)CCCC1(C)C [β-Ionone] | 2.9 |
